Test in all cases: Fluorescence polarization (FP) PKC inhibition assay, Protein Kinase C Assay Kit, Red (Invitrogen)
Type in all cases: biochemical
Background: Fluorescence polarisation rises when a labelled molecule tumbles more slowly, as on binding a larger partner.

One assay deals with T1, PKC zeta (Homo sapiens, UniProt Q05513).
T1 construct: purchased Invitrogen 9232
T1 sequence (Q05513 1-592): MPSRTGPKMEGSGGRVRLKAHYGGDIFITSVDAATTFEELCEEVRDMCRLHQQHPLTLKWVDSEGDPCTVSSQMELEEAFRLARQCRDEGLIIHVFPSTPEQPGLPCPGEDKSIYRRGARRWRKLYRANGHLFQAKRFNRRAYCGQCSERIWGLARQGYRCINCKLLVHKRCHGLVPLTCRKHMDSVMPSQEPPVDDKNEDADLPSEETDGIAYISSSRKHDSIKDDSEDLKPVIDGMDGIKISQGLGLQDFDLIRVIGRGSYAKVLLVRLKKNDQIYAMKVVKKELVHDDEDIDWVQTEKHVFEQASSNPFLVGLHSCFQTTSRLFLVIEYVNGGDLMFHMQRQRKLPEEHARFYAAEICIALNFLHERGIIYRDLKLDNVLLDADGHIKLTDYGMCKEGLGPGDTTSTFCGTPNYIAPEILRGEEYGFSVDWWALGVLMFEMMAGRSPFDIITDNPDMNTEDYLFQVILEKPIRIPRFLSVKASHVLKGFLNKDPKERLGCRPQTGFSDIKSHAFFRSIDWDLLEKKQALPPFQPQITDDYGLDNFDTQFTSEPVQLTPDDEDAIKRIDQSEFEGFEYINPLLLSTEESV
Conditions: enzyme 20 ng/ml, ATP 2.5 μM, substrate […] 1 μM. On the procedure:
(§1) To perform the assay, 2 μl of a solution of the compound to be tested in DMSO (at each concentration) was added to 6 μl of a solution of the enzyme in 10 mM HEPES, 5 mM dithiotreitol, 0.1% Triton X-100, pH 7,4.
(§2) After incubating for 30 minutes at room temperature, 4 μl of a mixture of ATP and the protein substrate in 60 mM HEPES (pH7.4), 15 mM MgCl2, 0.3 mM CaCl2, 0.06% NP40 was added.
(§3) After incubating for 80 minutes at room temperature, 3 μl of a mix solution of 500 mM EDTA (stop solution) and the Rhodamine-based PKC Red Tracer (from the Protein Kinase C Assay Kit) in BGG/phosphate buffer (pH7.4) with 0.02% NaN3 and 0.1% Triton X-100 was added and 5 μl of a the Anti-Phosphoserine antibody (also from the Protein Kinase C Assay Kit) in BGG/phosphate buffer (pH7.4) with 0.02% NaN3.
(§4) The results were fitted to a curve using the XL-Fit algorithm and IC50 values were calculated for each fitted curve, again using the XL-Fit algorithm.

The target of a further assay is T2, PKC epsilon (Homo sapiens, UniProt Q02156).
T2 construct: purchased Invitrogen 6906
T2 sequence (Q02156 1-737): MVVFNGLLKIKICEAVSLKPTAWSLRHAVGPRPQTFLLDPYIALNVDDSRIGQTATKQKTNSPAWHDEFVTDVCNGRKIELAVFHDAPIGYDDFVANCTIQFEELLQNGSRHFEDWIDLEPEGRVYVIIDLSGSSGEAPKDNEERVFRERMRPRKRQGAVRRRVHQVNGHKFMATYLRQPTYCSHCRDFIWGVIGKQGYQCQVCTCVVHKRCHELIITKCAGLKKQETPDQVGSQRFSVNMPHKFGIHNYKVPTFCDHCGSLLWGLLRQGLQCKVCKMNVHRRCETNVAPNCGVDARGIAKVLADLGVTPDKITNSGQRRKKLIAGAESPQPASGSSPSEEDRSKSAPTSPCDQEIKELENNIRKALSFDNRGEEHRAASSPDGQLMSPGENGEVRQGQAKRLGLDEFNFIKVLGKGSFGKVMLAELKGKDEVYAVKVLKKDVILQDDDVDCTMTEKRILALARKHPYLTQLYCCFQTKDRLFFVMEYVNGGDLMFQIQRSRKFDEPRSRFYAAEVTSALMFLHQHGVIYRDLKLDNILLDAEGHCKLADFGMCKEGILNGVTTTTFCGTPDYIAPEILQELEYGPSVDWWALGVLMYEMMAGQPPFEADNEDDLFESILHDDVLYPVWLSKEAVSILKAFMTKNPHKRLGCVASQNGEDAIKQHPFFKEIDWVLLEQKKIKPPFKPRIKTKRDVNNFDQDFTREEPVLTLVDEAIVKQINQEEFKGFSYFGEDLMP
Conditions: enzyme 10 ng/ml, ATP 2.5 μM, substrate […] 1 μM. On the procedure:
(§5) The substrate used was […]
as §1, §2, §3, §4

A further assay deals with T3, PKC gamma (Homo sapiens, UniProt P05129).
T3 construct: purchased Invitrogen 9343
Conditions: enzyme 20 ng/ml, ATP 2.5 μM, substrate […] 1 μM. On the procedure: as §5, §1, §2, §3, §4

The target of the next assay is T4, PKC theta (Homo sapiens, UniProt Q04759).
T4 construct: purchased Invitrogen 7101
T4 sequence (Q04759 whole entry): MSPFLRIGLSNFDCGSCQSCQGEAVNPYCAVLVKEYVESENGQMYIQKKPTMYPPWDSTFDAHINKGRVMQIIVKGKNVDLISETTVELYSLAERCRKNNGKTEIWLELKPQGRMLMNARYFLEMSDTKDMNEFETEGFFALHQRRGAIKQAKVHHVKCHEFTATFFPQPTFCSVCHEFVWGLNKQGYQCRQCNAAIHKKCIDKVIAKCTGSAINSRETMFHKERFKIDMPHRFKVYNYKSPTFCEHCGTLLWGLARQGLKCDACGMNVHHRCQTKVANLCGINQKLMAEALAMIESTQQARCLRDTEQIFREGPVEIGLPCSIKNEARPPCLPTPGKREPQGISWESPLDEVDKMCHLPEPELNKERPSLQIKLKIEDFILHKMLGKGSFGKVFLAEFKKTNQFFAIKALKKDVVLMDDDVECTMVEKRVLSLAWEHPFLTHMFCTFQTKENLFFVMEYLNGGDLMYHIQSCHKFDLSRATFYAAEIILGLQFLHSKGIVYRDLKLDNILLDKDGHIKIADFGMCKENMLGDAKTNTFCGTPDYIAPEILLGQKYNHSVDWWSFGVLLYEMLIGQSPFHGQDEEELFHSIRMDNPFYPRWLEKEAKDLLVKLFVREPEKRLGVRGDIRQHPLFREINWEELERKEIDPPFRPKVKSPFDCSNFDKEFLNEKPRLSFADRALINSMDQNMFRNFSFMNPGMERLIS
As to conditions: enzyme 20 ng/ml, ATP 2.5 μM, substrate […] 1 μM. The procedure:
as §5, §1, §2, §3, §4

Where a name gives a salt, the structure may show the parent alone.

Consider `COc1ccc(C(N)c2ccc(C(=O)Nc3ccncc3)cc2)cc1` (stereo not shown) [Compound 37, 4-[1-amino-(4-methoxyphenyl)-methyl]-N-pyridin-4-yl-benzamide], for which the IC50 against PKC zeta is above 100 µM; against PKC epsilon, 18.7 µM; against PKC gamma it was above 100 µM; on PKC theta, 80.3 µM.
On to `CC(N)c1ccc(C(=O)Nc2ccncc2)cc1` (stereo not shown) [Compound 23, 4-(1-amino-ethyl)-N-pyridin-4-yl-benzamide dihydrochloric acid salt], for which the IC50 is 22.1 µM on PKC zeta, 1.21 µM on PKC epsilon, above 100 µM against PKC gamma and 2.25 µM against PKC theta.
Turning to `CC(O)c1ccc(C(=O)Nc2ccncc2)cc1` (stereo not shown) [Compound 8, 4-(1-hydroxy-ethyl)-N-pyridin-4-yl-benzamide], the concentration for half-maximal inhibition (IC50) against PKC zeta, on PKC epsilon, on PKC gamma and against PKC theta was above 100 µM throughout.
For the compound `NC[C@H]1CC[C@H](C(=O)Nc2cccnc2)CC1` [Compound 6, Trans-4-aminomethyl-cyclohexanecarboxylic acid pyridin-3-ylamide], the IC50 at PKC zeta, against PKC epsilon, at PKC gamma and on PKC theta was above 100 µM in each case.
As to `NCc1ccc(-c2nc3ccncc3[nH]2)cc1` [Compound 14, 4-(3H-imidazo[4,5-c]pyridine-2-yl)-benzylamine], the IC50 on PKC zeta, on PKC epsilon, against PKC gamma and on PKC theta was above 100 µM in each case.
With `O=C(Nc1ccnc2[nH]ccc12)c1ccc(C2CCCCN2)cc1` (stereo not shown) [Compound 44, 4-piperidin-2-yl-N-(1H-pyrrolo[2,3pyridinedin-4-yl)-benzamidedihydrobromic acid salt], the concentration for half-maximal inhibition (IC50) is above 100 µM against PKC zeta, 1.6 µM at PKC epsilon, 30.7 µM against PKC gamma and 2.2 µM on PKC theta.
Taken in the same sequence, the figures for `CC(C)(C)C1CCC(C(=O)Nc2ccncc2)CC1` (stereo not shown) [Compound 2, 4-tert-butyl-cyclohexanecarboxylic acid pyridine-4-ylamide] were above 100 µM, above 100 µM, above 100 µM and above 100 µM.
Taken in the same sequence, the figures for `NCc1ccc(C(=O)Nc2ccncc2)o1` [Compound 15, 5-(amino-methyl)-furan-2-carboxylic acid pyridine-4-ylamide dihydrochloric acid salt] were above 100 µM, above 100 µM, above 100 µM and above 100 µM.
Taken in the same sequence, the figures for `NC(c1ccc(F)cc1)c1ccc(C(=O)Nc2ccncc2)cc1` (stereo not shown) [Compound 36, 4-[1-amino-(4-fluorophenyl)-methyl]-N-pyridin-4-yl-benzamide dihydrochloric acid salt] were above 100 µM, 9.5 µM, above 100 µM and 28.9 µM.
Take `NC(c1ccc(C(=O)Nc2ccncc2)cc1)C1CCCC1` (stereo not shown) [Compound 27]: the IC50 against PKC zeta is 70 µM; against PKC epsilon it was 0.94 µM; against PKC gamma, 76 µM; on PKC theta, 1.7 µM.
The like results for `CC(N)c1ccc(C(=O)Nc2ccncc2)s1` (racemic) [Compound 22, 5-(1-amino-ethyl)-thiophene-2-carboxylic acid pyridinedin-4-ylamide] were, in that order, 45.9 µM, 16 µM, above 100 µM and 9.01 µM.
The like results for `NC[C@H]1CC[C@H](C(=O)Nc2ccc(F)cc2)CC1` [Compound 4, Trans-4-aminomethyl-cyclohexanecarboxylic acid (4-fluoro-phenyl)-amide hydrochloric acid salt] were, in that order, above 100 µM, above 100 µM, above 100 µM and above 100 µM.
With `O=C(Nc1ccncc1)c1ccc(C2CCCCN2)cc1` (stereo not shown) [Compound 31, 4-piperidin-2-yl-N-pyridin-4-yl-benzamide dihydrochloric acid salt], the IC50 is above 100 µM at PKC zeta, 3.7 µM at PKC epsilon, above 100 µM against PKC gamma and 8.04 µM against PKC theta.
Take `CC(N)c1ccc(C(=O)Nc2ccnc3[nH]ccc23)cc1` (stereo not shown) [Compound 41, 4-(1-amino-ethyl)-N-(1H-pyrrolo[2,3pyridinedin-4-yl)-benzamidedihydrochloric acid salt]: the IC50 against PKC zeta was above 100 µM; at PKC epsilon it was 0.4 µM; against PKC gamma, 11.3 µM; against PKC theta, 0.77 µM.
Taken in the same sequence, the figures for `NC(c1ccc(C(=O)Nc2ccncc2)cc1)C1CCCCC1` (stereo not shown) [Compound 28] were above 100 µM, 2.6 µM, above 100 µM and 7.7 µM.
Taken in the same sequence, the figures for `NC[C@H]1CC[C@H](C(=O)Nc2ccccn2)CC1` [Compound 7, Trans-4-aminomethyl-cyclohexanecarboxylic acid pyridin-2-ylamide] were above 100 µM, above 100 µM, above 100 µM and above 100 µM.
Consider `N/C(=N\O)c1ccc(C(=O)Nc2ccncc2)cc1` [Compound 12, 4-(N-pyridin-4-yl)-benzamide oxime], for which the half-inhibitory concentration (IC50) against PKC zeta, at PKC epsilon, on PKC gamma and against PKC theta was above 100 µM throughout.
For the compound `NC(c1ccc(C(=O)Nc2ccnc3[nH]ccc23)cc1)C1CCCC1` (stereo not shown) [Compound 42], the half-inhibitory concentration (IC50) on PKC zeta is above 100 µM; against PKC epsilon, 0.3 µM; at PKC gamma, 17.3 µM; against PKC theta, 0.63 µM.
The like results for `O=C(Nc1ccnc2[nH]ccc12)c1ccc2c(c1)CCNC2` [Compound 43] were, in that order, above 100 µM, 9.9 µM, 21.8 µM and 8.6 µM.
The like results for `O=C(Nc1ccncc1)c1ccc(C2=NCCCN2)cc1` [Compound 34, N-pyridin-4-yl-4-(1,4,5,6-tetrahydro-1H-pyrimidin-2-yl)-benzamide] were, in that order, above 100 µM, 19.5 µM, above 100 µM and 75 µM.
The like results for `NC(c1ccc(C(=O)Nc2ccncc2)cc1)C1CC1` (stereo not shown) [Compound 26] were, in that order, 41.5 µM, 0.72 µM, 35.9 µM and 3.9 µM.
On to `NCc1ccc(C(=O)Nc2ccncn2)cc1` [Compound 21, 4-aminomethyl-N-pyrimidin-4-yl-benzamide dihydrochloric acid salt], for which the half-inhibitory concentration (IC50) at PKC zeta was above 100 µM; on PKC epsilon it was 34.4 µM; against PKC gamma it was above 100 µM; against PKC theta, 87.2 µM.
As to `CC(N)c1ccc(C(=O)Nc2ccnc3[nH]ccc23)s1` (stereo not shown) [Compound 40, 5-(1-amino-ethyl)-thiophene-2-carboxylic acid N-(1H-pyrrolo[2,3pyridinedin-4-yl)-benzamidedihydrochloric acid salt], the half-inhibitory concentration (IC50) on PKC zeta was above 100 µM; against PKC epsilon, 3.9 µM; against PKC theta, 3.2 µM.

One may read the IC50 as the midpoint of a concentration-inhibition curve. A lower IC50 goes with greater potency.

(Values after patent US20070191420A1, “Kinase inhibitors” (Devgen NV, priority 2004, published 2007).)
